Assay results: patent US9249035B2, “Method and system for treating water in order to reduce its endocrine disrupting effect by means of a living organism” (Veolia Water Solutions & Technologies Support, priority 2012, dated 2016)

Tested on: larvae of genetically modified amphibians
Test: Calibration test: fluorescence of genetically modified amphibian larvae exposed to growing estrogen concentrations
Format: in vivo
Conditions: FIG. 3
Procedure: A test of calibration of a plant to implement the method according to the invention was carried in order to determine an acceptable threshold value of endocrine disruptors in the treated water. This calibration test also makes it possible to distinguish the natural fluorescence of water and the basal fluorescence of genetically modified aquatic organisms, related to the normal functioning of the genes, from the fluorescence emitted by the same organisms when they detect the presence of an endocrine disrupting and/or toxic and/or genotoxic pollutant. The fluorescence of water and the basal fluorescence of the genetically modified aquatic organisms can be likened to background noise which must be evaluated in order to deduct it from the signal measured in the presence of a pollutant.
The disruptor chosen for example is estrogen which is found in urban wastewater. […] These concentrations have been related to measured intensities of fluorescence.
From a reading of this graph, it can observed that amphibian larvae are sensitive to very low doses of estrogen such as ethinyl-oestradiol (EE2) (2.5×10^−10 mol/L) and emit a detectable and quantifiable intensity of fluorescence. […] This concentration is related with the measured intensity of fluorescence. […]

## ethinyl-oestradiol
  estrogen concentration leading to a physiological reversal: ≥ 2×10^−9 mol/L
  very low dose at which amphibian larvae emit a detectable and quantifiable intensity of fluorescence: 2.5e-10 mol/L
